# Experimental data: patent publication US6846810B2, “Antiviral nucleoside derivatives” (Roche Palo Alto LLC, priority 2002, dated 2005)
# pIC50: −log10 of the molar value.
# Tested on: not given
# Experiment: not given
# Conditions: not given
row,melting point [°C],SMILES
1,62.1 to 87.7,CCCCC(=O)OC[C@@]1(N=[N+]=[N-])O[C@H](n2ccc(N)nc2=O)[C@H](O)[C@@H]1O.Cl
2,108 to 114,CC(C)(C)C(=O)Nc1ccn([C@@H]2O[C@@](CO)(N=[N+]=[N-])[C@@H](O)[C@H]2O)c(=O)n1
3,108.1 to 118.2,[N-]=[N+]=N[C@]1(CO)O[C@@H](n2ccc(NC(=O)c3ccccc3)nc2=O)[C@H](O)[C@@H]1O
4,86.5 to 94,CCCCOC(=O)Nc1ccn([C@@H]2O[C@@](CO)(N=[N+]=[N-])[C@@H](O)[C@H]2O)c(=O)n1
5,163 to 166.5,Cl.[N-]=[N+]=N[C@]1(COC(=O)c2ccccc2)O[C@H](n2ccc(N)nc2=O)[C@H](O)[C@@H]1O
6,134.4 to 136,CCCCCCOC(=O)Nc1ccn([C@H]2O[C@@](CO)(N=[N+]=[N-])[C@@H](O)[C@H]2O)c(=O)n1
7,88 to 90.9,CC(=O)OC[C@@]1(N=[N+]=[N-])O[C@H](n2ccc(N)nc2=O)[C@H](OC(C)=O)[C@@H]1OC(C)=O.Cl
8,141.1 to 141.8,COC(=O)Nc1ccn([C@H]2O[C@@](CO)(N=[N+]=[N-])[C@@H](O)[C@H]2O)c(=O)n1
9,208.9 to 210.3,Cl.[N-]=[N+]=N[C@]1(COC(=O)c2ccccc2)O[C@H](n2ccc(N)nc2=O)[C@H](OC(=O)c2ccccc2)[C@@H]1OC(=O)c1ccccc1
10,71 to 103.9,CCCCCCOC(=O)OC[C@@]1(N=[N+]=[N-])O[C@H](n2ccc(N)nc2=O)[C@H](O)[C@@H]1O.O=C(O)C(F)(F)F
11,90.9 to 94.6,CCCCCCCOC(=O)OC[C@@]1(N=[N+]=[N-])O[C@H](n2ccc(N)nc2=O)[C@H](O)[C@@H]1O.O=C(O)C(F)(F)F
12,70.5 to 81,CCCCCCCCOC(=O)OC[C@@]1(N=[N+]=[N-])O[C@H](n2ccc(N)nc2=O)[C@H](O)[C@@H]1O.O=C(O)C(F)(F)F
13,154 to 155,CCCCCCCCCCCC(=O)OC[C@@]1(N=[N+]=[N-])O[C@H](n2ccc(N)nc2=O)[C@H](O)[C@@H]1O.Cl
14,180.6 to 181.2,CCCCCCCCCC(=O)OC[C@@]1(N=[N+]=[N-])O[C@H](n2ccc(N)nc2=O)[C@H](O)[C@@H]1O.Cl
15,80 to 83.5,CC(C)(C)OC(=O)Nc1ccn([C@@H]2O[C@@](CO)(N=[N+]=[N-])[C@@H](O)[C@H]2O)c(=O)n1
16,187 to 189,Cc1ccc(C(=O)OC[C@@]2(N=[N+]=[N-])O[C@H](n3ccc(N)nc3=O)[C@H](O)[C@@H]2O)cc1.Cl
17,178.6 to 179.4,CCCCCCCCCCCCC(=O)OC[C@]1(N=[N+]=[N-])OC(n2ccc(N)nc2=O)[C@H](O)[C@@H]1O.Cl (some centres unmarked)
18,94 to 96.8,CC(=O)Nc1ccn([C@@H]2O[C@@](CO)(N=[N+]=[N-])[C@@H](O)[C@H]2O)c(=O)n1
19,174.7 to 176.1,CCCCCCCCCOC(=O)OC[C@@]1(N=[N+]=[N-])O[C@H](n2ccc(N)nc2=O)[C@H](O)[C@@H]1O.Cl
20,191.1 to 191.9,CC(C)C(=O)O[C@H]1[C@@H](n2ccc(N)nc2=O)O[C@@](CO)(N=[N+]=[N-])[C@H]1OC(=O)C(C)C.Cl
21,166.2 to 168.1,Cl.[N-]=[N+]=N[C@]1(CO)O[C@H](n2ccc(N)nc2=O)[C@H](OC(=O)c2ccccc2)[C@@H]1OC(=O)c1ccccc1
22,194.6 to 198.2,CCC(=O)O[C@H]1[C@@H](n2ccc(N)nc2=O)O[C@@](CO)(N=[N+]=[N-])[C@H]1OC(=O)CC.Cl
23,164.9 to 168.5,CCCCCCCCNC(=O)OC[C@@]1(N=[N+]=[N-])O[C@H](n2ccc(N)nc2=O)[C@H](O)[C@@H]1O.Cl
24,75 to 77.7,"CCCCCCCCCCOC(=O)OC[C@@]1(N=[N+]=[N-])O[C@H](n2ccc(N)nc2=O)[C@H](O)[C@@H]1O.O=C(O)C(F)(F)F [Compound 86, (S)-1-((3R,4S,5R)-5-Azido-5-decyloxycarbonyloxymethyl-3,4-dihydroxy-tetrahydro-furan-2-yl)-2-oxo-1,2-dihydro-pyrimidin-4-yl-ammonium; trifluoro-acetate]"

# Second part, the compound before the results:
row,SMILES,melting point [°C]
1,CC(=O)Nc1ccn([C@@H]2O[C@@](COC(C)=O)(N=[N+]=[N-])[C@@H](OC(C)=O)[C@H]2OC(C)=O)c(=O)n1,77 to 80.1
2,CCCCC(=O)O[C@H]1[C@@H](n2ccc(N)nc2=O)O[C@@](CO)(N=[N+]=[N-])[C@H]1OC(=O)CCCC.CS(=O)(=O)O,115.3 to 120.1
3,CCCCCC(=O)O[C@H]1[C@@H](n2ccc(N)nc2=O)O[C@@](CO)(N=[N+]=[N-])[C@H]1OC(=O)CCCCC.CS(=O)(=O)O,127.3 to 128.6
4,CCC(=O)OC[C@@]1(N=[N+]=[N-])O[C@@H](n2ccc(N)nc2=O)[C@H](OC(=O)CC)[C@@H]1OC(=O)CC,75.9 to 79.9
5,CC(C)CC(=O)OC[C@@]1(N=[N+]=[N-])O[C@H](n2ccc(N)nc2=O)[C@H](OC(=O)CC(C)C)[C@@H]1OC(=O)CC(C)C.Cl,142 to 142.8
6,CC(C)(C)C(=O)OC[C@]1(N=[N+]=[N-])O[C@@H](n2ccc(N)nc2=O)[C@@H](OC(=O)C(C)(C)C)[C@H]1OC(=O)C(C)(C)C.Cl,136.2 to 140
7,CCC(=O)OC[C@@]1(N=[N+]=[N-])O[C@H](n2ccc(N)nc2=O)[C@H](OC(=O)CC)[C@@H]1OC(=O)CC.Cl,72 to 75.2
8,CCCCC(=O)O[C@H]1[C@@H](n2ccc(N)nc2=O)O[C@@](CO)(N=[N+]=[N-])[C@H]1OC(=O)CCCC.Cl,124.3 to 128.4
9,CCCC(=O)O[C@H]1[C@@H](n2ccc(N)nc2=O)O[C@@](CO)(N=[N+]=[N-])[C@H]1OC(=O)CCC.O=C(O)C(F)(F)F,91 to 94.9
10,CCCC(=O)O[C@H]1[C@@H](n2ccc(N)nc2=O)O[C@@](CO)(N=[N+]=[N-])[C@H]1OC(=O)CCC.Cl,154.6 to 155.6
11,CCCC(=O)OC[C@@]1(N=[N+]=[N-])O[C@H](n2ccc(N)nc2=O)[C@H](OC(=O)CCC)[C@@H]1OC(=O)CCC.Cl,167.5 to 170.6
12,CCC(=O)OC[C@@]1(N=[N+]=[N-])O[C@H](n2ccc(N)nc2=O)[C@H](OC(=O)CC)[C@@H]1OC(=O)CC.CS(=O)(=O)O,149 to 153
13,"CC(C)(C)C(=O)Nc1ccn([C@@H]2O[C@@](COC(=O)C(C)(C)C)(N=[N+]=[N-])[C@@H](OC(=O)C(C)(C)C)[C@H]2OC(=O)C(C)(C)C)c(=O)n1 [Compound 5, 2,2-Dimethyl-propionic acid (2R,3S,4R,5R)-2-azido-5-[4-(2,2-dimethyl-propionylamino)-2-oxo-2H-pyrimidin-1-yl]-3,4-bis-(2,2-dimethyl-propionyloxy)-tetrahydro-furan-2-ylmethyl ester]",67.4 to 80
14,"CCCCC(=O)OC[C@@]1(N=[N+]=[N-])O[C@H](n2ccc(N)nc2=O)[C@H](OC(=O)CCCC)[C@@H]1OC(=O)CCCC.Cl [Compound 46, (S)-1-((3R,4S,5R)-5-Azido-3,4-bis-pentanoyloxy-5-pentanoyloxymethyl-tetrahydro-furan-2-yl)-2-oxo-1,2-dihydro-pyrimidin-4-yl-ammonium; chloride]",72.9 to 74.7

# Tested on: HCV replicon RNA (Renilla luciferase HCV replicon cells 2209-23)
# Experiment: Renilla luciferase assay (HCV replicon)
# Assay type: cell-based, Hepatitis C virus
# Conditions: Huh-7, 72 h; 2209-23 replicon cells (human hepatoma Huh7), three days incubation, 50% reduction of replicon level
row,SMILES,pIC50
1,"CC(C)(C)C(=O)Nc1ccn([C@@H]2O[C@@](COC(=O)C(C)(C)C)(N=[N+]=[N-])[C@@H](OC(=O)C(C)(C)C)[C@H]2OC(=O)C(C)(C)C)c(=O)n1 [Compound 5, 2,2-Dimethyl-propionic acid (2R,3S,4R,5R)-2-azido-5-[4-(2,2-dimethyl-propionylamino)-2-oxo-2H-pyrimidin-1-yl]-3,4-bis-(2,2-dimethyl-propionyloxy)-tetrahydro-furan-2-ylmethyl ester]",5.27
2,"CC(C)C(N)C(=O)OC[C@@]1(N=[N+]=[N-])O[C@@H](n2ccc(N)nc2=O)[C@H](O)[C@@H]1O (stereo partly drawn) [Compound 18, 1-[(2R,3S,4R,5R)-5-(4-Amino-2-oxo-2H-pyrimidin-1-yl)-2-azido-3,4-dihydroxy-tetrahydro-furan-2-ylmethoxycarbonyl]-2-methyl-propyl-ammonium; chloride]",5.62
3,"[N-]=[N+]=N[C@]1(COC(=O)c2ccccc2)O[C@@H](n2ccc(N)nc2=O)[C@H](OC(=O)c2ccccc2)[C@@H]1OC(=O)c1ccccc1 [Compound 25, Benzoic acid (2R,3S,4R,5R)-3,4-dibenzoyloxy-5-(4-amino-2-oxo-2H-pyrimidin-1-yl)-2-azido-tetrahydro-furan-2-ylmethyl ester]",5.61
